Reference: US7148380B2, “Bio-energy muscle relaxants” (priority 2000, dated 2006)

System: contraction of bronchial smooth muscle induced by histamine
Experiment: By-pass-airflow pressure, bronchial smooth muscle contraction induced by histamine
Assay type: in vivo, guinea pig
Protocol: The animals were divided as saline, BDM, and aminophylline groups. Each animal was anesthetized with pentobarbital (30 mg/kg, I.P.), the trachea was intubated and connected to respirator. Tidal volume and frequency of the respirator were adjusted to 6˜10 ml and 60˜70 breath/min. respectively.
A small hole on chest wall of the animal was made, resulting in pneumothorax to inhibit spontaneous respiration of the animal. A modified device was used for measuring by-pass-airflow pressure of the airway, reflecting alteration in airway resistance, therefore evaluating status of bronchial smooth muscle contraction induced by histamine. The by-pass-airflow pressures were measured before and at 10, 20, 30, 40, 50, and 60 min after administration of histamine (5˜10 μg, I.P.) as control values. […] Changes in by-pass-airflow pressure caused by histamine before and after saline, BDM, or aminophylline were compared.
A percentage of changes in the airflow pressures before and after administration of the histamine at different time points, defined as the change rate, was calculated according to formula 1 below: Change rate (%)=(PA−PB)/PB×100% (1)
where PA is the airflow pressure after histamine, PB is the pressure before histamine. Values were expressed as mean±SD, paired or group “t” test was used upon the requirement for the statistical analysis. The results were considered significant when p<0.05.

[1] = after drug 10 ml/kg I.P., 10 min after histamine
[2] = after drug 10 ml/kg I.P., 20 min after histamine
[3] = after drug 10 ml/kg I.P., 30 min after histamine
[4] = after drug 10 ml/kg I.P., 40 min after histamine
[5] = after drug 10 ml/kg I.P., 50 min after histamine
[6] = after drug 10 ml/kg I.P., 60 min after histamine
[7] = before drug administration, 10 min after histamine
[8] = before drug administration, 20 min after histamine
[9] = before drug administration, 30 min after histamine
[10] = before drug administration, 40 min after histamine
[11] = before drug administration, 50 min after histamine
[12] = before drug administration, 60 min after histamine

CC(=O)C(C)=NO [BDM, 2,3-butanedione monoxime]
by-pass-airflow pressure, A, B. Hist (after drug 10 ml/kg I.P. (BDM 0.2M, aminophylline 1.25%), before histamine): 3.86 ± 0.23 Kpa
by-pass-airflow pressure, A, Hist 10 min. [1]: 3.42 ± 0.21 Kpa
changing rate of by-pass-airflow pressure, A, Hist 10 min. [1]: −11.37%
by-pass-airflow pressure, A, Hist 20 min. [2]: 3.54 ± 0.21 Kpa
changing rate of by-pass-airflow pressure, A, Hist 20 min. [2]: −8.22%
by-pass-airflow pressure, A, Hist 30 min. [3]: 3.56 ± 0.27 Kpa
changing rate of by-pass-airflow pressure, A, Hist 30 min. [3]: −7.80%
by-pass-airflow pressure, A, Hist 40 min. [4]: 3.60 ± 0.28 Kpa
changing rate of by-pass-airflow pressure, A, Hist 40 min. [4]: −6.77%
by-pass-airflow pressure, A, Hist 50 min. [5]: 3.62 ± 0.29 Kpa
changing rate of by-pass-airflow pressure, A, Hist 50 min. [5]: −6.25%
by-pass-airflow pressure, A, Hist 60 min. [6]: 3.66 ± 0.26 Kpa
changing rate of by-pass-airflow pressure, A, Hist 60 min. [6]: −5.11%
histamine-induced increase in the airflow pressure (at 10, 20, 30, 40, and 50 min after administration, p<0.01 or p<0.05): significantly reduce
by-pass-airflow pressure, B, Hist 10 min. [7]: 3.67 ± 0.16 Kpa
changing rate of by-pass-airflow pressure, B, Hist 10 min. [7]: 2.13%
by-pass-airflow pressure, B, Hist 20 min. [8]: 3.76 ± 0.32 Kpa
changing rate of by-pass-airflow pressure, B, Hist 20 min. [8]: 4.49%
by-pass-airflow pressure, B, Hist 30 min. [9]: 3.72 ± 0.21 Kpa
changing rate of by-pass-airflow pressure, B, Hist 30 min. [9]: 3.52%
by-pass-airflow pressure, B, Hist 40 min. [10]: 3.72 ± 0.18 Kpa
changing rate of by-pass-airflow pressure, B, Hist 40 min. [10]: 3.56%
by-pass-airflow pressure, B, Hist 50 min. [11]: 3.67 ± 0.23 Kpa
changing rate of by-pass-airflow pressure, B, Hist 50 min. [11]: 2.06%
by-pass-airflow pressure, B, Hist 60 min. [12]: 3.68 ± 0.11 Kpa
changing rate of by-pass-airflow pressure, B, Hist 60 min. [12]: 2.54%
by-pass-airflow pressure, B, B. Hist (before drug administration, before histamine): 3.60 ± 0.26 Kpa
changing rate of by-pass-airflow pressure, D, Hist 10 min. (difference A minus B, 10 min after histamine): −13.50%
changing rate of by-pass-airflow pressure, D, Hist 20 min. (difference A minus B, 20 min after histamine): −12.72%
changing rate of by-pass-airflow pressure, D, Hist 30 min. (difference A minus B, 30 min after histamine): −11.33%
changing rate of by-pass-airflow pressure, D, Hist 40 min. (difference A minus B, 40 min after histamine): −10.34%
changing rate of by-pass-airflow pressure, D, Hist 50 min. (difference A minus B, 50 min after histamine): −8.31%
changing rate of by-pass-airflow pressure, D, Hist 60 min. (difference A minus B, 60 min after histamine): −7.65%
